From patent US10364256B2 (GlaxoSmithKline Intellectual Property Development Limited, priority 2015, dated 2019)

Assays:
[1] = tested on: NQO1 specific enzyme activity in BEAS-2B cells (marker for NRF2 activation); assay: BEAS-2B NQO1 MTT Assay; assay type: cell-based; settings: Homo sapiens, compound incubated 48 hours, read-out: EC50 (NQO1 specific enzyme activity induction)
Outline: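 BEAS-2B cells treated with compound for 48 h at 37 °C, then lysed; NQO1 activity in lysates measured kinetically by MTT reduction at A570 over 30 min. pEC50 from 3-parameter fit of ΔOD/min versus log concentration; lysate also taken for Cell Titer Glo.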

[2] = target: T1, Keap1 Kelch domain (321-609) / TAMRA-labeled 16mer NRF2 peptide (ETGE motif) (Homo sapiens, UniProt Q14145); assay: NRF2-Keap1 FP Assay (Keap1 Kelch fluorescence polarization); assay type: binding; settings: 20 nM Keap1 (321-609), 8 nM Tamra labeled peptide
T1 construct: the Kelch domain (321-609) of Keap1 is used
T1 sequence (Q14145 321-609): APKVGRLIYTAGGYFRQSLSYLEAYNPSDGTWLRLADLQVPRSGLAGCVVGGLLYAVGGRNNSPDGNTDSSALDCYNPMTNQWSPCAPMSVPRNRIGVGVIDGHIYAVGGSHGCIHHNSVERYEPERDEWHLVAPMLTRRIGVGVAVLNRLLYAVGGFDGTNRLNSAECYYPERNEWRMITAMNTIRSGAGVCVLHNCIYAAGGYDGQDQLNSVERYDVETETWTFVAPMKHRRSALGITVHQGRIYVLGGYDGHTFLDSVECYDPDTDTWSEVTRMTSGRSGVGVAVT
Outline: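 Compound dilutions (3-fold) were incubated 1 hr at room temperature with 20 nM Keap1 Kelch (321-609) and 8 nM TAMRA-labeled ETGE 16mer peptide. Buffer was 50 mM Tris pH 8.0, 100 mM NaCl, 5 mM MgCl2, 1 mM DTT, 2 mM CHAPS, 0.005% BSA. Fluorescence polarization (mP) was normalized to controls and fitted with a four-parameter equation to give pIC50.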

CCC[C@@H]1CCCCN1C(=O)c1cccc(-c2cccc(-n3ncc(C(=O)O)c3C3CC3)c2)c1F [Example 54e, 5-Cyclopropyl-1-{3-[2-fluoro-3-((2-S)-2-propylpiperidine-1-carbonyl)phenyl]phenyl}-1H-pyrazole-4-carboxylic Acid]
EC50 [1]: 100 to 1000 nM
IC50 [2]: 100 to 1000 nM

CCC[C@@H]1CCCCN1C(=O)c1cccc(-c2cccc(-n3ncc(C(=O)O)c3CCc3cn(C)nn3)c2)c1F [Example 55, (R)-1-(2′-Fluoro-3′-(2-propylpiperidine-1-carbonyl)-[1,1′-biphenyl]-3-yl)-5-(2-(1-methyl-1H-1,2,3-triazol-4-yl)ethyl)-1H-pyrazole-4-carboxylic Acid]
EC50 [1]: 1000 to 10000 nM
IC50 [2]: 10 to 100 nM

CC(C)Oc1cccc(-c2cccc(-n3ncc(C(=O)O)c3C3CC3c3cn(C)nn3)c2)c1 (stereo not shown) [Example 59, 1-(3′-Isopropoxy-[1,1′-biphenyl]-3-yl)-5-(2-(1-methyl-1H-1,2,3-triazol-4-yl)cyclopropyl)-1H-pyrazole-4-carboxylic Acid]
EC50 [1]: 1000 to 10000 nM
IC50 [2]: 100 to 1000 nM

CC1(C)CCc2cnn(-c3cccc(-c4cccc(-n5ncc(C(=O)O)c5C5CC5)c4)c3)c21 [Example 63, 5-Cyclopropyl-1-(3′-(6,6-dimethyl-5,6-dihydrocyclopenta[c]pyrazol-1(4H)-yl)-[1,1′-biphenyl]-3-yl)-1H-pyrazole-4-carboxylic Acid]
EC50 [1]: 100 to 1000 nM
IC50 [2]: 100 to 1000 nM

CC1(C)CCc2cnn(-c3cccc(-c4cccc(-n5ncc(C(=O)O)c5C(F)(F)F)c4)c3)c21 [Example 250, 1-(3′-(6,6-Dimethyl-5,6-dihydrocyclopenta[c]pyrazol-1(4H)-yl)-[1,1′-biphenyl]-3-yl)-5-(trifluoromethyl)-1H-pyrazole-4-carboxylic Acid]
EC50 [1]: 100 to 1000 nM
IC50 [2]: 100 to 1000 nM

C[C@@H]1CN(Cc2cccc(-c3cccc(-n4ncc(C(=O)O)c4[C@@H]4C[C@H]4c4cn(C)nn4)c3)c2)Cc2ccccc2O1 [Example 253]
EC50 [1]: 100 to 1000 nM
IC50 [2]: 10 to 100 nM

CCOC[C@@H]1CCCN1C(=O)c1cccc(-c2cccc(-n3ncc(C(=O)O)c3[C@@H]3C[C@H]3c3cn(C)nn3)c2)c1F [Example 267]
EC50 [1]: 100 to 1000 nM
IC50 [2]: 10 to 100 nM

CCOC[C@H]1CCCN1C(=O)c1cccc(-c2cccc(-n3ncc(C(=O)O)c3[C@@H]3C[C@H]3c3cn(C)nn3)c2)c1F [Example 268]
EC50 [1]: 100 to 1000 nM
IC50 [2]: 10 to 100 nM
